Patent EP0113880A2, “Derivatives from 2-azabicyclo(2.2.1)heptane, process for their preparation, agents containing them and their use, and 2-azabicyclo(2.2.1)heptane derivatives as intermediates, and process for their preparation” (HOECHST AKTIENGESELLSCHAFT, priority 1982, dated 1984)
Counter-ions that a name gives are not always drawn. Like-named read-outs stand apart in the source and are kept apart here.

Tested on: durch 310 ng Angiotensin I ausgelösten Pressorreaktion
Assay: Inhibition of the angiotensin I induced pressor response after intraduodenal administration to the anaesthetised rat
Type: in vivo, Ratte
Conditions: dose giving 50 % inhibition of the pressor response to 310 ng angiotensin I, 30 min after application
Procedure: Intraduodenale Gabe an der narkotisierten Ratte, 50 % Hemmung der durch 310 ng Angiotensin I ausgelösten Pressorreaktion 30 min. nach Applikation in der Dosis .............- ED50: […]

Compound | ED50 [mg/kg] | ED50 (30 min) [mg/kg] | further results
CCOC(=O)[C@H](CC(=O)c1ccccc1)N[C@@H](C)C(=O)N1C2CCC(C2)[C@H]1C(=O)O (stereo partly drawn) [N-(1-S-Carbethoxy-3-oxo-3-phenyl-propyl)-S-alanyl-2-azabicyclo [2.2.1] heptan-3-S-exo-carbonsäure] | 0.9 | – | –
CCOC(=O)[C@H](CC(=O)c1ccccc1)N[C@@H](C)C(=O)N1[C@H]2CC[C@H](C2)[C@H]1C(=O)O [N-(1-S-Carbethoxy-3-phenyl-3-oxo-propyl)-S-alanyl-2-azabicyclo [2.2.1] heptan-3-S-endo-carbonsäure. Hydrochlorid] | – | – | ED50 (0.5 h, read-out: ED50): 0.75 mg/kg
C[C@H](N[C@@H](CCc1ccccc1)C(=O)O)C(=O)N1C2CCC(C2)[C@H]1C(=O)O (stereo partly drawn) [n=1, X=C6H5, Y=H, Z=H, R^1=H, R^2=CH3, R=H, endo] [N-(1-S-Carboxy-3-phenyl-propyl)-S-alanyl-2-azabicyclo , [2.2.1] heptan-3-S-endo-carbonsäure] | – | 1.6 | –
C[C@H](N[C@@H](CCc1ccccc1)C(=O)O)C(=O)N1C2CCC(C2)[C@H]1C(=O)O (stereo partly drawn) [n=1, X=C6H5, Y=H, Z=H, R^1=H, R^2=CH3, R=H, exo] [N-(1-S-Carboxy-3-phenyl-propyl)-S-alanyl-2-azabicyclo [2.2.1 J heptan-3-S-exo-carbonsäure] | – | 1.8 | –
N-(1-S-Carbethoxy-3-phenyl-propyl)-S-alanyl-2-azabicyclo [2.2.1 ] heptan-3-S-exo-carbonsäure Hydrochlorid | 0.7 | – | –
N-(1-S-Carbethoxy-3-phenyl-propyl)-S-alanyl-2-azabicyclo [ 2.2.1] heptan-3-S-endo-carbonsäure-Hydrochlorid | 0.5 | – | –
